Source: patent US20220233523A1, “ANTIBIOTIC POTENTIATION FOR NONTUBERCULOUS MYCOBACTERIAL DISEASE” (priority 2019, published 2022)
Marks after values point to notes of the source that are not given here.

Assays:
[1] = tested on: MAH 3388 biofilm; test: Amikacin with short-chain fatty acids on biofilm of lung isolate MAH 3388; assay type: cell-based; conditions: for CFU/mL, MAH 3388: amikacin concentration: 4 mg/ml, untreated 9.4 +/− 0.2 × 10^7; for activity to potentiate Amikacin activity: biofilms of MAH 3388
Description: As a negative control, biofilms were incubated only with non-supplemented 7H9 without any antibiotics. […] Subsequently, 100 μl of 0.02% of Triton X-100 (final concentration 0.01%) was added to the established biofilms to mix, dilute and perform CFU analysis with the entire population of biofilms (attached and unattached).
Biofilms were established from an MAH strain isolated from the lungs of a patient (MAH 3388).

[2] = tested on: intracellular MAH 104 in THP-1 macrophages; test: Treatment of MAH inside human THP-1 macrophages with antibiotics and metabolites (CFU); assay type: cell-based, Mycobacterium avium subsp hominissuis 104 (MAH104); conditions: for CFU/ml of macrophage lysate, 2 h: 2 h (baseline); for CFU/ml of macrophage lysate, 4 days: clarithromycin 16 μg/ml, amikacin 4 μg/ml, none 8.2 +/− 0.3 × 10^5
Description: Human THP-1 cell line (TIB-202) (American Type Culture Collection, Manassas, Va.) was cultivated in RPMI-1640 medium with 10% of heat-inactivated fetal bovine serum (FBS, GEMINI B10-PRODUCTS, Sacramento, Calif.), at 37° C. with 5% CO2. The THP-1 cells were maintained in 75 cm^2 tissue culture flasks. The differentiation of THP-1 monocytes into macrophages with PMA (phorbol 12-myristate 13-acetate) (SIGMA ALDRICH) and intracellular antibiotic killing assays were performed as previously described (Rojony et al., Clinical proteomics 2019; 16:39). […] As a negative control, differentiated THP-1 cells were incubated without any antibiotics and with no metabolites. THP-1 cells were replenished with new media containing antibiotics, or no antibiotic, every other day. Cells were lysed at 2 h (baseline) and day 4 and subsequently the number of viable bacteria was determined by CFU counting on 7H10 agar plates.

[3] = tested on: MAH 3393 biofilm; test: Amikacin with short-chain fatty acids on biofilm of lung isolate MAH 3393; assay type: cell-based; conditions: amikacin concentration: 4 mg/ml; untreated 1.0 +/− 0.8 × 10^8
[4] = tested on: MAH104 biofilms; assay type: cell-based, Mycobacterium avium subsp hominissuis 104 (MAH104); conditions: O.D.590 nm, biofilm vs planktonic
Description: Metabolic phenotype study was performed with planktonic and biofilm cultures using the 96-well plates PM1 and PM2A (BIOLOG™, Hayward, Calif.). The assays with planktonic cells and biofilms were made at the same time. Each plate contains carbon substrates and one negative control well, in which the bacteria is tested without any substrate. The tests with planktonic and biofilm cultures were performed at the same time and the culture inoculum have the same number of passages. […] The experiments were made as an end-point assay.
The cultures of biofilms were established for 7 days in regular polystyrene 96 well plates, not in PM Biolog plates, as described above with a minor difference. […] (total of 14 days of biofilm incubated at 37° C.). To obtain spectrophotometric measurements from biofilm cultures (O.D.590 nm), the plate was centrifuged for 20 minutes at 3500 rpm at 20° C., which reduce bacteria interference with the readings, and biofilm supernatant was transferred to a new 96 well plates for O.D.590 nm measurement.
Experiments were performed three times as an end-point assay. If planktonic and/or biofilm cultures were able to metabolize a specific metabolite substrate, electrons from NADH reduce the Redox dye in an irreversible reaction that generates a purple color in the PM plate wells. The signal (+) and (−) indicates, respectively, whether a purple color was produced or not. Abiotic reductions of the Redox dye were assessed through adding bacteria-free GN/GP-IF-0a fluid in the wells. Negative control corresponds to the wells without any metabolic substrate.

Row | SMILES | CFU/mL, MAH 3388 [1] | activity to potentiate Amikacin activity [1] | CFU/ml of macrophage lysate, 2 h [2] | CFU/ml of macrophage lysate, 4 days [2] | CFU/mL, MAH 3393 [3] | lower capacity of biofilms to use the substrate compared with planktonic cultures [4] [fold] | bacterial killing by clarithromycin and amikacin in macrophages after co-treatment ([2]; THP1 macrophages)
1 | CCCC(=O)O [Butyric acid] | 9.7 +/− 0.6 × 10^7 CFU/mL | confirmed | 2.0 +/− 0.4 × 10^5 CFU/ml | 8.4 +/− 0.5 × 10^5 CFU/ml | 6.2 +/− 0.7 × 10^7 CFU/mL |  | 
2 | OCC(O)CO [Glycerol] |  |  | 3.1 +/− 0.4 × 10^5 CFU/ml | 2.0 +/− 0.5 × 10^5* (1) CFU/ml |  | 11.14 | 
3 | CCC(=O)O [Propionic acid] | 9.6 +/− 0.4 × 10^7 CFU/mL | confirmed | 2.0 +/− 0.4 × 10^5 CFU/ml | 8.0 +/− 0.2 × 10^5 CFU/ml | 1.7 +/− 0.4 × 10^7 CFU/mL | 5.49 | increased significantly
